Numbers after ± are expanded uncertainties.
Test: xn = mol fraction of the nth substance listed
Conditions: 100 kPa, Liquid; for viscosity: Falling or rolling sphere viscometry; for mass density: Vibrating tube method

CCCCCCCO [heptan-1-ol] + CCO
Conditions | mass density, 313.15 K [kg/m3] | mass density, 318.15 K [kg/m3] | mass density, 323.15 K [kg/m3] | mass density, 328.15 K [kg/m3] | viscosity, 313.15 K [mPa·s] | viscosity, 318.15 K [mPa·s] | viscosity, 323.15 K [mPa·s] | viscosity, 328.15 K [mPa·s]
x2 = 0 | 808.2 ± 0.3 | 804.6 ± 0.3 | 801 ± 0.3 | 797.4 ± 0.3 | 3.83 ± 0.04 | 3.33 ± 0.04 | 2.89 ± 0.03 | 2.54 ± 0.03
x2 = 0.1 | 806.4 ± 0.3 | 802.8 ± 0.3 | 799.1 ± 0.3 | 795.4 ± 0.3 | 3.39 ± 0.04 | 2.96 ± 0.03 | 2.59 ± 0.03 | 2.28 ± 0.03
x2 = 0.2004 | 804.4 ± 0.2 | 800.7 ± 0.2 | 797 ± 0.2 | 793.3 ± 0.2 | 3 ± 0.03 | 2.63 ± 0.03 | 2.31 ± 0.03 | 2.05 ± 0.03
x2 = 0.3007 | 802.4 ± 0.2 | 798.7 ± 0.2 | 794.9 ± 0.2 | 791.2 ± 0.2 | 2.66 ± 0.03 | 2.35 ± 0.03 | 2.08 ± 0.03 | 1.84 ± 0.03
x2 = 0.3995 | 800.1 ± 0.2 | 796.3 ± 0.2 | 792.5 ± 0.2 | 788.7 ± 0.2 | 2.38 ± 0.03 | 2.11 ± 0.03 | 1.88 ± 0.03 | 1.68 ± 0.02
x2 = 0.5007 | 797.2 ± 0.2 | 793.4 ± 0.2 | 789.5 ± 0.2 | 785.6 ± 0.2 | 2.07 ± 0.03 | 1.85 ± 0.03 | 1.65 ± 0.02 | 1.48 ± 0.02
x2 = 0.5995 | 793.8 ± 0.2 | 790 ± 0.2 | 786 ± 0.2 | 782.1 ± 0.2 | 1.78 ± 0.02 | 1.6 ± 0.02 | 1.44 ± 0.02 | 1.29 ± 0.02
x2 = 0.7001 | 790 ± 0.2 | 786 ± 0.2 | 782 ± 0.2 | 777.9 ± 0.2 | 1.5 ± 0.02 | 1.36 ± 0.02 | 1.23 ± 0.02 | 1.11 ± 0.02
x2 = 0.8002 | 785.4 ± 0.2 | 781.4 ± 0.2 | 777.2 ± 0.2 | 773 ± 0.2 | 1.26 ± 0.02 | 1.14 ± 0.02 | 1.04 ± 0.02 | 0.94 ± 0.02
x2 = 0.9003 | 780 ± 0.2 | 775.8 ± 0.2 | 771.5 ± 0.2 | 767.1 ± 0.2 | 1.03 ± 0.02 | 0.94 ± 0.02 | 0.87 ± 0.02 | 0.79 ± 0.02

From the NIST ThermoML archive (doi:10.1021/je501133u)
